The supplement of paper PMC11061612

Assays:
Test in all cases: combination Emax (second highest fraction inhibited in the dose matrix, 72 h); higher = more inhibition; extreme values may be limits of the assay
[1] = system: BHT-101 (Thyroid Gland Carcinoma)
Procedure, shortened: (§1)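 After 24 hours at 37°C and 5% CO2 in 1536-well plates, cells in DMEM/F12 or RPMI plus 10% FBS received two-drug dose matrices for 72 hours. Viability came from CellTiter-Glo 2.0 luminescence and was scaled as inhibition, anchored at 0 by vehicle wells and at 1 by blank wells. Combination Emax is taken as the second-highest inhibition in the matrix, and Bliss excess as the observed combination effect less EA + EB − EA·EB, with EA and EB the single-agent effects.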

[2] = system: CPC-N (Small Cell Lung Carcinoma)
Procedure, shortened: as §1

ES6 (Ewing's Sarcoma) = system: ES6 (Ewing's Sarcoma)
Procedure, shortened: as §1

GAK (Melanoma) = system: GAK (Melanoma)
Procedure, shortened: as §1

[3] = system: IA-LM (Non-Small Cell Lung Carcinoma)
Procedure, shortened: as §1

[4] = system: KP-4 (Pancreatic Carcinoma)
Procedure, shortened: as §1

[5] = system: LCLC-103H (Non-Small Cell Lung Carcinoma)
Procedure, shortened: as §1

[6] = system: MDA-MB-415 (Breast Carcinoma)
Procedure, shortened: as §1

[7] = system: MOLT-13 (T-Lymphoblastic Leukemia)
Procedure, shortened: as §1

[8] = system: MONO-MAC-6 (Acute Myeloid Leukemia)
Procedure, shortened: as §1

[9] = system: NCI-H1876 (Small Cell Lung Carcinoma)
Procedure, shortened: as §1

[10] = system: NCI-H1963 (Small Cell Lung Carcinoma)
Procedure, shortened: as §1

NCI-H226 (Mesothelioma) = system: NCI-H226 (Mesothelioma)
Procedure, shortened: as §1

[11] = system: NCI-H596 (Other Solid Carcinomas)
Procedure, shortened: as §1

[12] = system: OVCAR-3 (Ovarian Carcinoma)
Procedure, shortened: as §1

[13] = system: PA-TU-8988T (Pancreatic Carcinoma)
Procedure, shortened: as §1

[14] = system: SCC-4 (Oral Cavity Carcinoma)
Procedure, shortened: as §1

[15] = system: SK-CO-1 (Colorectal Carcinoma)
Procedure, shortened: as §1

SK-N-SH (Neuroblastoma) = system: SK-N-SH (Neuroblastoma)
Procedure, shortened: as §1

[16] = system: SNU-407 (Colorectal Carcinoma)
Procedure, shortened: as §1

Row | Compound | combination Emax [1] | combination Emax [2] | combination Emax (ES6 (Ewing's Sarcoma)) | combination Emax (GAK (Melanoma)) | combination Emax [3] | combination Emax [4] | combination Emax [5] | combination Emax [6] | combination Emax [7] | combination Emax [8] | combination Emax [9] | combination Emax [10] | combination Emax (NCI-H226 (Mesothelioma)) | combination Emax [11] | combination Emax [12] | combination Emax [13] | combination Emax [14] | combination Emax [15] | combination Emax (SK-N-SH (Neuroblastoma)) | combination Emax [16]
1 | CC1(C)CCC(CN2CCN(c3ccc(C(=O)NS(=O)(=O)c4ccc(NCC5CCOCC5)c([N+](=O)[O-])c4)c(Oc4cnc5[nH]ccc5c4)c3)CC2)=C(c2ccc(Cl)cc2)C1 [Venetoclax] + COc1cc(Nc2ncc3c(n2)-c2ccc(Cl)cc2C(c2c(F)cccc2OC)=NC3)ccc1C(=O)O [Alisertib] (first compound max 1 µM, 7x7, partner max 10 µM) | 0.672 | 0.835 | 0.277 | 0.147 | 0.617 | 0.44 | 0.539 | 0.379 | 0.896 | 0.964 | 0.866 | 0.949 | 0.224 | 0.381 | 0.394 | 0.403 | 0.571 | 0.629 | 0.902 | 0.631
2 | CC1(C)CCC(CN2CCN(c3ccc(C(=O)NS(=O)(=O)c4ccc(NCC5CCOCC5)c([N+](=O)[O-])c4)c(Oc4cnc5[nH]ccc5c4)c3)CC2)=C(c2ccc(Cl)cc2)C1 [Venetoclax] + C[C@@H]1COCCN1C2=NC(=NC(=C2)C3(CC3)[S@](=N)(=O)C)C4=C5C=CNC5=NC=C4 [AZD6738] (first compound max 1 µM, 7x7, partner max 10 µM) | 0.642 | 0.936 | 0.571 | 0.528 | 0.435 | 0.418 | 0.55 | 0.509 | 1 | 0.985 | 0.942 | 0.985 | 0.243 | 0.371 | 0.48 | 0.345 | 0.585 | 0.55 | 0.915 | 0.77
3 | CC1(C)CCC(CN2CCN(c3ccc(C(=O)NS(=O)(=O)c4ccc(NCC5CCOCC5)c([N+](=O)[O-])c4)c(Oc4cnc5[nH]ccc5c4)c3)CC2)=C(c2ccc(Cl)cc2)C1 [Venetoclax] + C[C@@H](Nc1cc(F)cc(F)c1)c1cc(C(=O)N(C)C)cc2c(=O)cc(N3CCOCC3)oc12 [AZD8186] (first compound max 1 µM, 7x7, partner max 3 µM) | 0.272 | 0.835 | 0.198 | 0.242 | 0.0865 | 0.421 | 0.253 | 0.663 | 0.431 | 0.808 | 0.182 | 0.758 | 0.0928 | 0.241 | 0.241 | 0.257 | 0.614 | 0.187 | 0.403 | 0.142
4 | CC1(C)CCC(CN2CCN(c3ccc(C(=O)NS(=O)(=O)c4ccc(NCC5CCOCC5)c([N+](=O)[O-])c4)c(Oc4cnc5[nH]ccc5c4)c3)CC2)=C(c2ccc(Cl)cc2)C1 [Venetoclax] + Cc1cc2ncnn2cc1Nc1ncc2c(n1)n(C1CCOCC1)c(=O)n2C [AZD7648] (first compound max 1 µM, 7x7, partner max 10 µM) | 0.221 | 0.84 | 0.37 | 0.204 | 0.261 | 0.126 | 0.282 | 0.342 | 0.785 | 0.436 | 0.274 | 0.744 | 0.171 | 0.226 | 0.196 | 0.238 | 0.235 | 0.229 | 0.543 | 0.373
5 | CC1(C)CCC(CN2CCN(c3ccc(C(=O)NS(=O)(=O)c4ccc(NCC5CCOCC5)c([N+](=O)[O-])c4)c(Oc4cnc5[nH]ccc5c4)c3)CC2)=C(c2ccc(Cl)cc2)C1 [Venetoclax] + Cn1cnc2c(F)c(Nc3ccc(Br)cc3Cl)c(C(=O)NOCCO)cc21 [Selumetinib] (first compound max 1 µM, 7x7, partner max 3 µM) | 0.686 | 0.734 | 0.162 | 0.731 | 0.175 | 0.131 | 0.115 | 0.176 | 0.804 | 0.357 | 0.205 | 0.76 | 0.0891 | 0.222 | 0.126 | 0.272 | 0.164 | 0.727 | 0.553 | 0.504
